Laboratory results as given in US6399659B2, “Hydrazine oxoacetamide derivative and insecticide” (Agro-Kanesho Co., Ltd., priority 1998, dated 2002).

What was measured:
Format in all cases: in vivo
[1] = tested on: Spodoptera litura; assay: Effect on Spodoptera litura, sprayed Chinese cabbage leaves, death rate; details: third-instar larvae, 48 hours
Experimental: An emulsion was prepared from each of the present compounds listed below, in the same manner as that of Preparation Example 2. The obtained emulsion was diluted with water so that the concentration of the present compound would be 50 ppm, 5 ppm or 0.5 ppm to obtain diluted aqueous emulsions.
The diluted aqueous emulsions were sprayed on leaves of Chinese cabbages of a 3-4 leave stage. After drying with air, the leaves were placed in a plastic vessel having a size of 21 cm×13 cm×3 cm (depth). Ten third-instar larvae of Spodoptera litura were released in the vessel. The vessel was closed and placed in a room kept at a constant temperature of 26. 48 hours after, the numbers of surviving and dead ones were counted, and the death rate was calculated.

[2] = tested on: Plutella xylostella; assay: Effect on Plutella xylostella, sprayed Chinese cabbage leaves, death rate; details: third-instar larvae, 48 hours
Experimental: Emulsions of varied concentrations prepared in the same manner as that of the above Biological Test Example 1 were sprayed on leaves of Chinese cabbages of a 3-4 leave stage. After drying with air, the leaves were placed in a plastic vessel having a size of 9 cm (inside diameter)×6.5 cm (depth). Ten third-instar larvae of Plutella xylostella were released in the vessel. The vessel was closed and placed in a room kept at a constant temperature of 26. 48 hours after, the numbers of surviving and dead ones were counted, and the death rate was calculated. The results are shown in following Table 7 together with those obtained with comparative compounds.

[3] = tested on: Mamestra brassicae; assay: Effect on Mamestra brassicae, insecticidal activity as in Biological Test Example 1
[4] = Peroral acute toxicity for mouse; details: 300 mg/kg peroral, male ICR mice, 7 days observation
Experimental: Each of the present compounds was suspended in a 0.5% aqueous carboxymethylcellulose solution to obtain a suspension of a predetermined concentration. Male SIc:ICR mice (SPF) of 6 weeks old (body weight: 29.5 to 34.4 g) were fasted for 3 hours. 1 ml, per 100 g of the body weight, of the suspension was forcibly fed into the stomach of each mouse. Then, a food and water were given to the mice and they were bred in a cage. The observation period after the administration was 7 days. During that period, the life and death, general conditions and change in body weight of the mice were observed. Thereafter, pathologico-anatomic experiments were carried out (two mice in each group).

Molecule	death rate ([1]; 0.5 ppm)	death rate ([1]; 5 ppm)	death rate ([1]; 50 ppm)	death rate ([2]; 0.5 ppm)	death rate ([2]; 5 ppm)	death rate ([2]; 50 ppm)	insecticidal activity (death rate) ([3]; 1.25 ppm)	insecticidal activity (death rate) ([3]; 2.5 ppm)	insecticidal activity (death rate) ([3]; 50 ppm)	life and death, general conditions [4]
4-[(4-chlorophenyl)-(ethylaminoxalyl-hydrazono)-methyl]phenyl trifuoromethanesulfonate [Compound 1-5]	100%	100%	100%	0	100	100	89%	100%	100%	Neither death nor abnormality of the general conditions was recognized
COC(=O)C(=O)N/N=C(/c1ccc(Cl)cc1)c1ccc(OS(C)(=O)=O)cc1 [Comparative compound C, reference compound]	–	0%	100%	–	–	–	–	–	–	–
CNC(=O)C(=O)NN=C(c1ccc(Cl)cc1)c1ccc(OS(=O)(=O)C(F)(F)F)cc1 [Compound 1-3, 4-[(4-chlorophenyl)-(methylaminoxalyl-hydrazono)-methyl]-phenyl trifluoromethanesulfonate]	50%	100%	100%	0	100	100	67%	89%	100%	–
CCCNC(=O)C(=O)NN=C(c1ccc(Cl)cc1)c1ccc(OS(=O)(=O)C(F)(F)F)cc1 [Compound 1-7]	70%	100%	100%	–	–	–	50%	70%	100%	–
C=CCNC(=O)C(=O)NN=C(c1ccc(Cl)cc1)c1ccc(OS(=O)(=O)C(F)(F)F)cc1 [Compound 1-27]	70%	100%	100%	–	–	–	80%	100%	100%	–
C#CCNC(=O)C(=O)NN=C(c1ccc(Cl)cc1)c1ccc(OS(=O)(=O)C(F)(F)F)cc1 [Compound 1-37]	60%	100%	100%	–	–	–	70%	100%	100%	–
O=C(NN=C(c1ccc(Cl)cc1)c1ccc(OS(=O)(=O)C(F)(F)F)cc1)C(=O)NC1CC1 [Compound 1-43]	90%	100%	100%	–	–	–	33%	67%	100%	–
CN(C)C(=O)C(=O)N/N=C(/c1ccc(Cl)cc1)c1ccc(OS(=O)(=O)C(F)(F)F)cc1 [Compound 1-133]	90%	100%	100%	–	–	–	44%	100%	100%	–
CNC(=O)C(=O)N(C)N=C(c1ccc(Cl)cc1)c1ccc(OS(=O)(=O)C(F)(F)F)cc1 [Compound 1-178]	30%	100%	100%	–	–	–	–	–	–	–
CNC(=O)C(=O)NN=C(c1ccc(Br)cc1)c1ccc(OS(=O)(=O)C(F)(F)F)cc1 [Compound 1-515]	75%	100%	100%	–	–	–	60%	80%	100%	–
CCNC(=O)C(=O)NN=C(c1ccc(Br)cc1)c1ccc(OS(=O)(=O)C(F)(F)F)cc1 [Compound 1-517]	60%	100%	100%	–	–	–	100%	100%	100%	–
O=C(NN=C(c1ccc(Br)cc1)c1ccc(OS(=O)(=O)C(F)(F)F)cc1)C(=O)NC1CC1 [Compound 1-555]	40%	100%	100%	–	–	–	–	–	–	–
CCNC(=O)C(=O)NN=C(c1ccc(Cl)cc1)c1ccc(CSC(F)(F)F)cc1 [Compound 2-6]	50%	100%	100%	–	–	–	–	–	–	–
